Test results published in US12077503B2, “Substituted cyclic amides and their use as herbicides” (FMC CORPORATION, priority 2015, dated 2024).

Experiments:
Assay type in all cases: in vivo
[1] = tested on: corn (Zea mays); experiment: Test G Post-Emergence Protocol; details: Zea mays, post-emergence, 312 h; for plant injury at 15.625 g/ha: 15.625 g ai/ha, evaluated after 13 days (100=total damage to plant; 0=no damage to plant), read-out: Corn damage rating; for plant injury at 62.5 g/ha: 62.5 g ai/ha, read-out: Corn damage rating (100=total damage to plant; 0=no damage to plant); for plant injury at 62.5 g/ha / plant injury at 250 g/ha: evaluated after 13 days; for plant injury at 250 g/ha: 250 g ai/ha, read-out: damage to plant, Corn (100=total damage to plant; 0=no damage to plant)
How it was run: (§1)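 Eight days post-sowing, plants received a spray of test compound (acetone/water 50:50, 0.5% Tween 20) at 15.625, 62.5 or 250 g/ha. Glasshouse regime thereafter: 24/16 °C, 14 h light, 65% humidity. Assessment after 13 days on a 0–100 damage scale.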

[2] = tested on: velvetleaf (Abutilon theophrasti); experiment: Test G Post-Emergence Protocol; details: Abutilon theophrasti, post-emergence, 312 h; for pest or weed control at 15.625 g/ha: 15.625 g ai/ha, evaluated after 13 days (100=total damage to plant; 0=no damage to plant), read-out: Velvetleaf damage rating; for pest or weed control at 62.5 g/ha: 62.5 g ai/ha, read-out: Velvetleaf damage rating (100=total damage to plant; 0=no damage to plant); for pest or weed control at 62.5 g/ha / pest or weed control at 250 g/ha: evaluated after 13 days; for pest or weed control at 250 g/ha: 250 g ai/ha, read-out: damage to plant, Velvetleaf (100=total damage to plant; 0=no damage to plant)
How it was run: as §1

[3] = tested on: ivy-leaved morning glory (Ipomoea hederacea); experiment: Test G Post-Emergence Protocol; details: Ipomoea, post-emergence, 312 h; for pest or weed control at 15.625 g/ha: 15.625 g ai/ha, evaluated after 13 days (100=total damage to plant; 0=no damage to plant), read-out: Morningglory, Ivy-leaved damage rating; for pest or weed control at 62.5 g/ha: 62.5 g ai/ha, read-out: Morningglory, Ivy-leaved damage rating (100=total damage to plant; 0=no damage to plant); for pest or weed control at 62.5 g/ha / pest or weed control at 250 g/ha: evaluated after 13 days; for pest or weed control at 250 g/ha: 250 g ai/ha, read-out: damage to plant, Morningglory, Ivy-leaved (100=total damage to plant; 0=no damage to plant)
How it was run: as §1

[4] = tested on: redroot pigweed (Amaranthus retroflexus); experiment: Test G Post-Emergence Protocol; details: Amaranthus retroflexus, post-emergence, 312 h; for pest or weed control at 15.625 g/ha: 15.625 g ai/ha, evaluated after 13 days (100=total damage to plant; 0=no damage to plant), read-out: Pigweed, Redroot damage rating; for pest or weed control at 62.5 g/ha: 62.5 g ai/ha, read-out: Pigweed, Redroot damage rating (100=total damage to plant; 0=no damage to plant); for pest or weed control at 62.5 g/ha / pest or weed control at 250 g/ha: evaluated after 13 days; for pest or weed control at 250 g/ha: 250 g ai/ha, read-out: damage to plant, Pigweed, Redroot (100=total damage to plant; 0=no damage to plant)
How it was run: as §1

[5] = tested on: giant foxtail (Setaria faberi); experiment: Test G Post-Emergence Protocol; details: Setaria faberi, post-emergence, 312 h; for pest or weed control at 15.625 g/ha: 15.625 g ai/ha, evaluated after 13 days (100=total damage to plant; 0=no damage to plant), read-out: Foxtail, Giant damage rating; for pest or weed control at 62.5 g/ha: 62.5 g ai/ha, read-out: Foxtail, Giant damage rating (100=total damage to plant; 0=no damage to plant); for pest or weed control at 62.5 g/ha / pest or weed control at 250 g/ha: evaluated after 13 days; for pest or weed control at 250 g/ha: 250 g ai/ha, read-out: damage to plant, Foxtail, Giant (100=total damage to plant; 0=no damage to plant)
How it was run: as §1

[6] = tested on: barnyardgrass (Echinochloa crus-galli); experiment: Test G Post-Emergence Protocol; details: Echinochloa crus-galli, post-emergence, 312 h; for pest or weed control at 15.625 g/ha: 15.625 g ai/ha, evaluated after 13 days (100=total damage to plant; 0=no damage to plant), read-out: Barnyardgrass damage rating; for pest or weed control at 62.5 g/ha: 62.5 g ai/ha, read-out: Barnyardgrass damage rating (100=total damage to plant; 0=no damage to plant); for pest or weed control at 62.5 g/ha / pest or weed control at 250 g/ha: evaluated after 13 days; for pest or weed control at 250 g/ha: 250 g ai/ha, read-out: damage to plant, Barnyardgrass (100=total damage to plant; 0=no damage to plant)
How it was run: as §1

[7] = tested on: corn (Zea mays); experiment: Test G Pre-Emergence Protocol; details: Zea mays, pre-emergence, 312 h, evaluated after 13 days; for plant injury at 15.625 g/ha: 15.625 g ai/ha; for plant injury at 15.625 g/ha / plant injury at 250 g/ha: read-out: Corn damage rating (100=total damage to plant; 0=no damage to plant); for plant injury at 62.5 g/ha: 62.5 g ai/ha, 100=total damage to plant, 0=no damage to plant, read-out: plant damage rating, Corn; for plant injury at 250 g/ha: 250 g ai/ha
How it was run: (§2)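 One day after sowing, pots are treated with a spray of test compound formulated in acetone/water 50:50 plus 0.5% Tween 20, giving 15.625, 62.5 or 250 g/ha. Evaluation on a 0–100 damage scale follows 13 days of glasshouse growth.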

[8] = tested on: velvetleaf (Abutilon theophrasti); experiment: Test G Pre-Emergence Protocol; details: Abutilon theophrasti, pre-emergence, 312 h, evaluated after 13 days; for pest or weed control at 15.625 g/ha: 15.625 g ai/ha; for pest or weed control at 15.625 g/ha / pest or weed control at 250 g/ha: read-out: Velvetleaf damage rating (100=total damage to plant; 0=no damage to plant); for pest or weed control at 62.5 g/ha: 62.5 g ai/ha, 100=total damage to plant, 0=no damage to plant, read-out: plant damage rating, Velvetleaf; for pest or weed control at 250 g/ha: 250 g ai/ha
How it was run: as §2

[9] = tested on: ivy-leaved morning glory (Ipomoea hederacea); experiment: Test G Pre-Emergence Protocol; details: Ipomoea, pre-emergence, 312 h, evaluated after 13 days; for pest or weed control at 15.625 g/ha: 15.625 g ai/ha, read-out: Morning-glory, Ivy-leaved damage rating (100=total damage to plant; 0=no damage to plant); for pest or weed control at 62.5 g/ha: 62.5 g ai/ha, 100=total damage to plant, 0=no damage to plant, read-out: plant damage rating, Morningglory, Ivy-leaved; for pest or weed control at 250 g/ha: 250 g ai/ha, read-out: Morningglory, Ivy-leaved damage rating (100=total damage to plant; 0=no damage to plant)
How it was run: as §2

[10] = tested on: redroot pigweed (Amaranthus retroflexus); experiment: Test G Pre-Emergence Protocol; details: Amaranthus retroflexus, pre-emergence, 312 h, evaluated after 13 days; for pest or weed control at 15.625 g/ha: 15.625 g ai/ha; for pest or weed control at 15.625 g/ha / pest or weed control at 250 g/ha: read-out: Pigweed, Redroot damage rating (100=total damage to plant; 0=no damage to plant); for pest or weed control at 62.5 g/ha: 62.5 g ai/ha, 100=total damage to plant, 0=no damage to plant, read-out: plant damage rating, Pigweed, Redroot; for pest or weed control at 250 g/ha: 250 g ai/ha
How it was run: as §2

[11] = tested on: giant foxtail (Setaria faberi); experiment: Test G Pre-Emergence Protocol; details: Setaria faberi, pre-emergence, 312 h, evaluated after 13 days; for pest or weed control at 15.625 g/ha: 15.625 g ai/ha; for pest or weed control at 15.625 g/ha / pest or weed control at 250 g/ha: read-out: Foxtail, Giant damage rating (100=total damage to plant; 0=no damage to plant); for pest or weed control at 62.5 g/ha: 62.5 g ai/ha, 100=total damage to plant, 0=no damage to plant, read-out: plant damage rating, Foxtail, Giant; for pest or weed control at 250 g/ha: 250 g ai/ha
How it was run: as §2

[12] = tested on: barnyardgrass (Echinochloa crus-galli); experiment: Test G Pre-Emergence Protocol; details: Echinochloa crus-galli, pre-emergence, 312 h, evaluated after 13 days; for pest or weed control at 15.625 g/ha: 15.625 g ai/ha, read-out: Barnyard grass damage rating (100=total damage to plant; 0=no damage to plant); for pest or weed control at 62.5 g/ha: 62.5 g ai/ha, 100=total damage to plant, 0=no damage to plant, read-out: plant damage rating, Barnyardgrass; for pest or weed control at 250 g/ha: 250 g ai/ha, read-out: Barnyardgrass damage rating (100=total damage to plant; 0=no damage to plant)
How it was run: as §2

Row | SMILES | plant injury at 15.625 g/ha [1] [%] | plant injury at 62.5 g/ha [1] [%] | plant injury at 250 g/ha [1] [%] | pest or weed control at 15.625 g/ha [2] [%] | pest or weed control at 62.5 g/ha [2] [%] | pest or weed control at 250 g/ha [2] [%] | pest or weed control at 15.625 g/ha [3] [%] | pest or weed control at 62.5 g/ha [3] [%] | pest or weed control at 250 g/ha [3] [%] | pest or weed control at 15.625 g/ha [4] [%] | pest or weed control at 62.5 g/ha [4] [%] | pest or weed control at 250 g/ha [4] [%] | pest or weed control at 15.625 g/ha [5] [%] | pest or weed control at 62.5 g/ha [5] [%] | pest or weed control at 250 g/ha [5] [%] | pest or weed control at 15.625 g/ha [6] [%] | pest or weed control at 62.5 g/ha [6] [%] | pest or weed control at 250 g/ha [6] [%] | plant injury at 15.625 g/ha [7] [%] | plant injury at 62.5 g/ha [7] [%] | also measured
1 | Cc1c(Cl)cccc1NC(=O)[C@@H]1C(=O)N(C)C[C@H]1c1ccc(C(F)(F)F)cc1 (racemic) [Compound 1607] | 0 | 0 | 60 | 10 | 30 | 40 | 20 | 30 | 60 | 0 | 40 | 70 | 50 | 80 | 80 | 0 | 50 | 60 | 0 | 0 | plant injury at 250 g/ha [7]: 10%; pest or weed control at 15.625 g/ha [8]: 0%; pest or weed control at 62.5 g/ha [8]: 0%; pest or weed control at 250 g/ha [8]: 20%; pest or weed control at 15.625 g/ha [9]: 0%; pest or weed control at 62.5 g/ha [9]: 10%; pest or weed control at 250 g/ha [9]: 20%; pest or weed control at 15.625 g/ha [10]: 0%; pest or weed control at 62.5 g/ha [10]: 20%; pest or weed control at 250 g/ha [10]: 30%; pest or weed control at 15.625 g/ha [11]: 50%; pest or weed control at 62.5 g/ha [11]: 80%; pest or weed control at 250 g/ha [11]: 80%; pest or weed control at 15.625 g/ha [12]: 0%; pest or weed control at 62.5 g/ha [12]: 40%; pest or weed control at 250 g/ha [12]: 80%
2 | CN1C[C@@H](c2ccc(C(F)(F)F)cc2)[C@H](C(=O)Nc2ncccn2)C1=O (racemic) [Compound 1564] | 0 | 0 | 10 | 0 | 0 | 0 | 0 | 0 | 0 | 0 | 0 | 10 | 0 | 0 | 10 | 0 | 0 | 20 | 0 | 0 | plant injury at 250 g/ha [7]: 10%; pest or weed control at 15.625 g/ha [8]: 0%; pest or weed control at 62.5 g/ha [8]: 0%; pest or weed control at 250 g/ha [8]: 0%; pest or weed control at 15.625 g/ha [9]: 0%; pest or weed control at 62.5 g/ha [9]: 0%; pest or weed control at 250 g/ha [9]: 0%; pest or weed control at 15.625 g/ha [10]: 0%; pest or weed control at 62.5 g/ha [10]: 0%; pest or weed control at 250 g/ha [10]: 0%; pest or weed control at 15.625 g/ha [11]: 0%; pest or weed control at 62.5 g/ha [11]: 0%; pest or weed control at 250 g/ha [11]: 0%; pest or weed control at 15.625 g/ha [12]: 0%; pest or weed control at 62.5 g/ha [12]: 0%; pest or weed control at 250 g/ha [12]: 0%
